Source: BindingDB's records for doi:10.1021/bi300490r (University of Pittsburgh, 2012)

Tests used:
[1] = target: T1, DNA-(apurinic or apyrimidinic site) endonuclease (Homo sapiens, UniProt P27695); assay: Molecular Beacon Assay
Description: A fluorescenc-based molecular beacon assay to measure APE-1 protein activity and inhibition was performed as described.

[2] = target: T1, DNA-(apurinic or apyrimidinic site) endonuclease; assay: Gel-Based Assay
Source text: In addition to the real-time fluorescence assay for studying inhibition of APE-1 activity, we also employed a gel-based assay to visualize and quantify repair activity of APE-1 and its inhibition.

T1 sequence (P27695 whole entry): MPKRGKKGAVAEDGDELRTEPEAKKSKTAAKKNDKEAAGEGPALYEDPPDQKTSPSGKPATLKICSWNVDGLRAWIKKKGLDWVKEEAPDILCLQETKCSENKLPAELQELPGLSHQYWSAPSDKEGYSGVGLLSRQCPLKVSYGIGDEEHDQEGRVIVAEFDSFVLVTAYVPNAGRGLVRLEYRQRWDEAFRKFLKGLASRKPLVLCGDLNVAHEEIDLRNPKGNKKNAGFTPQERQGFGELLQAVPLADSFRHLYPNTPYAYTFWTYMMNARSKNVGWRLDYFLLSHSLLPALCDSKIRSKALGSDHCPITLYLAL

Compound: O=C(O)C(CCCCNc1ccc([N+](=O)[O-])cc1[N+](=O)[O-])Nc1ccc([N+](=O)[O-])cc1[N+](=O)[O-] (configuration not stated) [NSC89640, 9]
- Ki [1]: 13 µM

Compound: O=C(/C=C\c1ccc([N+](=O)[O-])cc1)NCCCCNC(=O)/C=C/c1ccc([N+](=O)[O-])cc1 [NSC107215, 10]
- Ki [1]: 17 µM

Compound: COc1ccc(C(Cc2ccccc2)/N=N/c2ccc([N+](=O)[O-])c([N+](=O)[O-])c2)cc1 (configuration not stated) [NSC131534, 11]
- Ki [1]: 6.7 µM

Compound: Cc1ccc2nc(C)cc(N=NC(C)c3cn(C)n(-c4ccccc4)c3=O)c2c1 (configuration not stated) [NSC300598, 7]
- Ki [1]: 10.9 µM

Compound: COc1cccc(CN=Nc2cc(C)nc3cc4c(cc23)OCO4)c1 [NSC332384, 2]
- IC50 [2]: 10.1 µM
- Ki [1]: 0.22 µM

Compound: Cc1cc(N=NCc2ccc3c(c2)OCO3)c2cc3c(cc2n1)OCO3 [NSC332389, 3]
- IC50 [2]: 2.9 µM
- Ki [1]: 0.19 µM

Compound: CCn1c2ccccc2c2cc(CN=Nc3cc(C)nc4cc5c(cc34)OCO5)ccc21 [NSC332395, 4]
- IC50 [2]: 4.1 µM
- Ki [1]: 0.12 µM

Compound: Cc1cc(N=NCc2c(C)n(C)n(-c3ccccc3)c2=O)c2cc3c(cc2n1)OCO3 [NSC332396, 5]
- IC50 [2]: 34.4 µM
- Ki [1]: 0.68 µM

Compound: Cc1cc(N=NC(C)c2cn(C)n(-c3ccccc3)c2=O)c2cc3c(cc2n1)OCO3 (configuration not stated) [NSC332398, 1]
- IC50 [2]: 4.4 µM
- Ki [1]: 0.18 µM

Compound: C/C(=N\Nc1cc(C)c2ccccc2n1)c1cn(C)n(-c2ccccc2)c1=O [NSC332410, 8]
- IC50 [2]: > 100 µM

Compound: O=C(CC(=Nc1ccccc1)C(=O)c1ccccc1)c1ccccc1 [NSC402686, 14]
- Ki [1]: 37 µM

Compound: N=c1[nH]nc2nc(CC(=O)c3ccccc3[N+](=O)[O-])c(CC(=O)c3ccccc3[N+](=O)[O-])nn12 [NSC614430, 13]
- Ki [1]: 4.9 µM
